Several values for one entry are separate records, joined by “and”; a condition that tells them apart may be missing. Equal entries are not always repeated. Where two headings read alike, the source gives them in different places.
Columns and labels:
CEN of orthobunyaviruses = test system: CEN of orthobunyaviruses; design: method as in PMID 32766680, PMID 38656310; conditions: cited from earlier work
LACV [1] = test: microbe, parasite or virus in culture; type: cell-based, La Crosse virus
LACV [2] = test: microbe, parasite or virus in culture; type: cell-based, La Crosse virus; remark: listed apart in the source
[3] = Cell viability assay (MTT), uninfected Vero cells; type: cell-based; conditions: African green monkey, mean ± SD
Protocol: (§1) CPE-based antiviral activity and cell viability assays were conducted as previously reported ([23]), with several modifications. Vero and SH-SY5Y cells were treated with serially diluted compounds in minimum essential medium (MEM) containing 2% FBS. In the antiviral evaluation, the cells were infected with LACV (40–80 plaque-forming unit [PFU]/well for Vero and 300–4,000 PFU/well for SH-SY5Y cells). In the cell viability assays, the cells treated with the compounds were cultured in the absence of viral infection. After 2 or 3 days of culture, the cells were stained with 3-(4,5-dimethylthiazol-2-yl)-2,5-diphenyltetrazolium bromide (MTT). The antiviral activity (50% effective concentration values, EC50) was calculated using Prism version 9.5.1 (GraphPad, La Jolla, CA, USA) using the four-parameter logistic method. Non-infected and non-treated cells were defined as the 100% inhibition control, while LACV-infected and non-treated cells were defined as the 0% inhibition control. Cell viability (50% cytotoxicity concentration values, CC50) was calculated using the MTT assay. Non-treated control cells were defined as the 100% cell viability control, while wells containing culture medium without cells were defined as the 0% cell viability control. Selective Index (SI50) was calculated as the ratio of CC50 to EC50 (CC50/EC50).

[4] = Cell viability assay (MTT), uninfected SH-SY5Y cells; type: cell-based; conditions: human, MTT at 3 dpi, mean ± SD
Protocol: as §1

LACV passage control WT [5] = test: microbe, parasite or virus in culture; type: cell-based; conditions: La Crosse virus, Vero
LACV passage control WT [6] = test: microbe, parasite or virus in culture; type: cell-based; conditions: La Crosse virus, SH-SY5Y
LACV [7] = type: cell-based, La Crosse virus
[8] = type: in vivo; conditions: uninfected mice; s.c. once daily for 7 days
[9] = test system: Bunyaviruses, including LACV; design: method as in PMID 36037386; conditions: cited from earlier work

Structure (SMILES) | Binding to CEN and inhibition of enzymatic activity (CEN of orthobunyaviruses) | EC50 lower than for T-705 and RBV (LACV [1]) | Inhibition of LACV-induced cell death compared with other CEN inhibitors (LACV [1]) | Antiviral activity compared with other CEN inhibitors (LACV [2]) | EC50 (LACV [2]) | EC50 (LACV [2]; La Crosse virus, SH-SY5Y) [µM] | CC50 [3] [µM] | CC50 at 3 days [4] [µM] | EC50 (LACV passage control WT [5]) [µM] | EC50 (LACV passage control WT [6]) [µM] | Viral RNA expression, entry-stage treatment (LACV [7]) | Body weight changes versus vehicle-treated mice [8] | Susceptibility of bunyaviruses among the four CEN inhibitors [9] | EC50 (LACV [1]; La Crosse virus, Vero) [µM] | EC50 (LACV [1]) [µM]
O=C1c2c(O)c(=O)ccn2N([C@@H]2c3ccccc3SCc3c2ccc(F)c3F)[C@@H]2COCCN12 [BXA, baloxavir acid] | binds to the CEN of orthobunyaviruses and inhibits its enzymatic activity |  |  |  |  |  |  |  |  |  |  |  |  |  | 
CC(C)N1CN(C2c3ccccc3CCc3ccccc32)n2cc(C(=O)O)c(=O)c(O)c2C1=O [CAPCA-1, carbamoyl pyridone carboxylic acid (CAPCA)-1] |  | more than 50 fold | inhibited LACV-induced cell death at lower concentrations than the other CEN inhibitors | antiviral activity comparable to that of CAPCA-4 and demonstrated higher activity than CAPCA-2, -3, and -5 | 0.69 µM and 0.95 µM | < 1 | > 50 | > 50 | 0.79 ± 0.39 | 0.65 ± 0.05 | no inhibitory effect | No significant differences in body weight changes | most susceptible to CAPCA-1 |  | 
NC(=O)c1ncn([C@@H]2O[C@H](CO)[C@@H](O)[C@H]2O)n1 [RBV, Ribavirin, reference compound] |  |  |  |  |  | > 100 | 82.1 ± 28.4 | 121 ± 7.61 |  |  |  |  |  | > 100 | 
NC(=O)c1nc(F)c[nH]c1=O [T-705, favipiravir, reference compound] |  |  |  |  |  | > 100 | 117 ± 24.7 | > 200 | 43.8 ± 11.5 |  | no inhibitory effect |  |  | 33.9 ± 5.29 | 37.8 ± 3.96
